In brackets after ≈: the same amount, converted by molar mass.
Experiments:
Assay in all cases: In vitro antibacterial evaluation: minimum inhibitory concentration (MIC), broth dilution method
Assay type in all cases: cell-based
[1] = test system: Enterococcus sp.
Summary of the method: (§1)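 Following NCCLS approved standard M7-A2, compounds are serially diluted from 64 to 0.06 μg/mL in Muller-Hinton II […] and inoculated at 5×10^5 CFU/mL; the MIC is the minimum concentration at which growth is inhibited.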

[2] = test system: Escherichia coli
Summary of the method: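 Inoculum: 5×10^5 CFU/mL. Range: 64-0.06 μg/mL. Medium: Muller-Hinton II […]; NCCLS M7-A2 broth dilution. Endpoint: lowest concentration inhibiting growth. Strains include methicillin-, penicillin- and/or vancomycin-resistant clinical isolates.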

[3] = test system: Staphylococcus sp.; conditions: 18 hours at 35° C.
Summary of the method: as §1

[4] = test system: Streptococcus sp.; conditions: 18 hours at 35° C.
Summary of the method: as §1

[5] = test system: Escherichia coli; remark: listed apart in the source
[6] = Enterococcus faecalis (ATCC 29212)
[7] = Enterococcus faecalis (GC 2242), 18 hours at 35° C.
[8] = Enterococcus faecalis (GC 4552), 18 hours at 35° C.
[9] = Enterococcus faecalis (GC 4553)
[10] = Enterococcus faecalis (GC 4554)
[11] = Staphylococcus aureus (ATCC 29213)
[12] = Staphylococcus aureus (GC 1131)
[13] = Staphylococcus aureus (GC 4541)
[14] = Staphylococcus aureus (GC 4542)
[15] = Staphylococcus aureus (GC 4544)
[16] = Staphylococcus aureus (GC 4545)
[17] = Streptococcus agalactiae (GC 4564)
[18] = Streptococcus pyogenes (ID-3187)

CC(c1ccc(F)cc1)C1NC(=O)CNC(=O)C(CO)NC(=O)C(C(O)C2CNC(=N)N2C2OC(CO)C(O)C(O)C2O)NC(=O)C(C(O)C2CNC(=N)N2)NC(=O)C(Cc2ccc(OC3OC(CO)C(OC4OC(CO)C(O)C(O)C4O)C(O)C3O)cc2)NC1=O (stereo not drawn) [Example 261a, Cyclo[glycyl-4-fluoro-β-methylphenylalanyl-O-(4-O-hexopyranosylhexopyranosyl)tyrosyl-3-(2-iminoimidazolidin-4-yl)seryl-3-(3-hexopyranosyl-2-iminoimidazolidin-4-yl)serylseryl]]
MIC Enterococcus avium (GC 4558) ([1]; Enterococcus avium (GC 4558)): >64 µg/mL | MIC Enterococcus faecalis (ATCC 29212) [1, 6]: >64 µg/mL | MIC Enterococcus faecalis (GC 2242) [1, 7]: >64 µg/mL | MIC Enterococcus faecalis (GC 4552) [1, 8]: >64 µg/mL | MIC Enterococcus faecalis (GC 4553) [1, 9]: >64 µg/mL | MIC Enterococcus faecalis (GC 4554) [1, 10]: >64 µg/mL | MIC Enterococcus faecium (GC 2243) ([1]; Enterococcus faecium (GC 2243)): >64 µg/mL | MIC Enterococcus faecium (GC 4556) ([1]; Enterococcus faecium (GC 4556)): >64 µg/mL | MIC Enterococcus faecium (GC 4557) ([1]; Enterococcus faecium (GC 4557)): >64 µg/mL | MIC Escherichia coli (GC 4559) [2]: >64 µg/mL | MIC Escherichia coli (GC 4560) [2]: >64 µg/mL | MIC Coagulase Negative Staphylococcus (GC 4547) [3]: >64 µg/mL | MIC Coagulase Negative Staphylococcus (GC 4548) [3]: >64 µg/mL | MIC Coagulase Negative Staphylococcus (GC 4549) [3]: >64 µg/mL | MIC Coagulase Negative Staphylococcus (GC 4551) [3]: >64 µg/mL | MIC Staphylococcus aureus (ATCC 29213) [3, 11]: >64 µg/mL | MIC Staphylococcus aureus (GC 1131) [3, 12]: >64 µg/mL | MIC Staphylococcus aureus (GC 4541) [3, 13]: >64 µg/mL | MIC Staphylococcus aureus (GC 4542) [3, 14]: >64 µg/mL | MIC Staphylococcus aureus (GC 4544) [3, 15]: >64 µg/mL | MIC Staphylococcus aureus (GC 4545) [3, 16]: >64 µg/mL | MIC Staphylococcus aureus-SMITH (GC 4543) [3]: >64 µg/mL | MIC Staphylococcus haemolyticus (GC 4546) [3]: >64 µg/mL | MIC Streptococcus agalactiae (GC 4564) [4, 17]: >64 µg/mL | MIC Streptococcus pyogenes (ID-3187) [4, 18]: >64 µg/mL | MIC Escherichia coli (ATCC 25922) [5]: >64 µg/mL

CC(C)CC(=O)OC1C(OC2C(CO)OC(Oc3ccc(CC4NC(=O)C(C(C)c5ccc(F)cc5)NC(=O)CNC(=O)C(CO)NC(=O)C(C(O)C5CNC(=N)N5C5OC(CO)C(O)C(O)C5O)NC(=O)C(C(O)C5CNC(=N)N5)NC4=O)cc3)C(O)C2O)OC(CO)C(O)C1O (stereo not drawn) [Example 261b, Cyclo[glycyl-4-fluoro-β-methylphenylalanyl-O-[4-O-[2-O-(3-methylbutanoyl)hexopyranosyl]-hexopyranosyl]tyrosyl-3-(2-iminoimidazolidin-4-yl)seryl-3-(3-hexopyranosyl-2-imino-imidazolidin-4-yl)serylseryl]]
MIC Enterococcus avium (GC 4558) ([1]; Enterococcus avium (GC 4558)): 64 µg/mL (≈ 45.8 µM) | MIC Enterococcus faecalis (ATCC 29212) [1, 6]: >64 µg/mL | MIC Enterococcus faecalis (GC 2242) [1, 7]: 64 µg/mL (≈ 45.8 µM) | MIC Enterococcus faecalis (GC 4552) [1, 8]: 64 µg/mL (≈ 45.8 µM) | MIC Enterococcus faecalis (GC 4553) [1, 9]: 64 µg/mL (≈ 45.8 µM) | MIC Enterococcus faecalis (GC 4554) [1, 10]: >64 µg/mL | MIC Enterococcus faecium (GC 2243) ([1]; Enterococcus faecium (GC 2243)): >64 µg/mL | MIC Enterococcus faecium (GC 4556) ([1]; Enterococcus faecium (GC 4556)): 64 µg/mL (≈ 45.8 µM) | MIC Enterococcus faecium (GC 4557) ([1]; Enterococcus faecium (GC 4557)): 16 µg/mL (≈ 11.4 µM) | MIC Escherichia coli (GC 4559) [2]: >64 µg/mL | MIC Escherichia coli (GC 4560) [2]: 4 µg/mL (≈ 2.86 µM) | MIC Coagulase Negative Staphylococcus (GC 4547) [3]: 8 µg/mL (≈ 5.72 µM) | MIC Coagulase Negative Staphylococcus (GC 4548) [3]: 4 µg/mL (≈ 2.86 µM) | MIC Coagulase Negative Staphylococcus (GC 4549) [3]: 4 µg/mL (≈ 2.86 µM) | MIC Coagulase Negative Staphylococcus (GC 4551) [3]: 8 µg/mL (≈ 5.72 µM) | MIC Staphylococcus aureus (ATCC 29213) [3, 11]: 8 µg/mL (≈ 5.72 µM) | MIC Staphylococcus aureus (GC 1131) [3, 12]: 16 µg/mL (≈ 11.4 µM) | MIC Staphylococcus aureus (GC 4541) [3, 13]: 16 µg/mL (≈ 11.4 µM) | MIC Staphylococcus aureus (GC 4542) [3, 14]: 16 µg/mL (≈ 11.4 µM) | MIC Staphylococcus aureus (GC 4544) [3, 15]: 8 µg/mL (≈ 5.72 µM) | MIC Staphylococcus aureus (GC 4545) [3, 16]: 16 µg/mL (≈ 11.4 µM) | MIC Staphylococcus aureus-SMITH (GC 4543) [3]: 8 µg/mL (≈ 5.72 µM) | MIC Staphylococcus haemolyticus (GC 4546) [3]: 8 µg/mL (≈ 5.72 µM) | MIC Streptococcus agalactiae (GC 4564) [4, 17]: 8 µg/mL (≈ 5.72 µM) | MIC Streptococcus pyogenes (ID-3187) [4, 18]: 4 µg/mL (≈ 2.86 µM) | MIC Escherichia coli (ATCC 25922) [5]: >64 µg/mL

α-O-[(Cyclohexylamino)carbonyl]-cyclo[glycyl-β-methylphenylalanyl-O-(4-O-hexopyranosylhexopyranosyl)tyrosyl-3-(2-iminoimidazolidin-4-yl)seryl-3-(3-hexopyranosyl-2-iminoimidazolidin-4-yl)serylseryl] [Example 256]
MIC Enterococcus avium (GC 4558) ([1]; Enterococcus avium (GC 4558)): >64 µg/mL | MIC Enterococcus faecalis (ATCC 29212) [1, 6]: >64 µg/mL | MIC Enterococcus faecalis (GC 2242) [1, 7]: >64 µg/mL | MIC Enterococcus faecalis (GC 4552) [1, 8]: >64 µg/mL | MIC Enterococcus faecalis (GC 4553) [1, 9]: >64 µg/mL | MIC Enterococcus faecalis (GC 4554) [1, 10]: >64 µg/mL | MIC Enterococcus faecium (GC 2243) ([1]; Enterococcus faecium (GC 2243)): >64 µg/mL | MIC Enterococcus faecium (GC 4556) ([1]; Enterococcus faecium (GC 4556)): >64 µg/mL | MIC Enterococcus faecium (GC 4557) ([1]; Enterococcus faecium (GC 4557)): 64 µg/mL | MIC Enterococcus faecalis (ATCC 29212) ([1]; broth dilution, 18 hours at 35° C., strain ATCC 29212): >64 µg/mL | MIC Enterococcus faecalis (GC 2242) ([1]; broth dilution, 18 hours at 35° C., strain GC 2242): >64 µg/mL | MIC Enterococcus faecium (GC 2243) ([1]; broth dilution, 18 hours at 35° C., strain GC 2243): >64 µg/mL | MIC Enterococcus faecalis (GC 4552) ([1]; broth dilution, 18 hours at 35° C., strain GC 4552): >64 µg/mL | MIC Enterococcus faecalis (GC 4553) ([1]; broth dilution, 18 hours at 35° C., strain GC 4553): >64 µg/mL | MIC Enterococcus faecalis (GC 4554) ([1]; broth dilution, 18 hours at 35° C., strain GC 4554): >64 µg/mL | MIC Enterococcus faecium (GC 4556) ([1]; broth dilution, 18 hours at 35° C., strain GC 4556): >64 µg/mL | MIC Enterococcus faecium (GC 4557) ([1]; broth dilution, 18 hours at 35° C., strain GC 4557): 64 µg/mL | MIC Enterococcus avium (GC 4558) ([1]; broth dilution, 18 hours at 35° C., strain GC 4558): >64 µg/mL | MIC Escherichia coli (GC 4559) [2]: >64 µg/mL | MIC Escherichia coli (GC 4560) [2]: 32 µg/mL | MIC Coagulase Negative Staphylococcus (GC 4547) [3]: >64 µg/mL | MIC Coagulase Negative Staphylococcus (GC 4548) [3]: >64 µg/mL | MIC Coagulase Negative Staphylococcus (GC 4549) [3]: >64 µg/mL | MIC Coagulase Negative Staphylococcus (GC 4551) [3]: >64 µg/mL | MIC Coagulase Negative Staphylococcus (ID-3941) ([3]; Coagulase Negative Staphylococcus (ID-3941)): >64 µg/mL | MIC Staphylococcus aureus (ATCC 29213) [3, 11]: >64 µg/mL | MIC Staphylococcus aureus (GC 1131) [3, 12]: >64 µg/mL | MIC Staphylococcus aureus (GC 4541) [3, 13]: >64 µg/mL | MIC Staphylococcus aureus (GC 4542) [3, 14]: >64 µg/mL | MIC Staphylococcus aureus (GC 4544) [3, 15]: >64 µg/mL | MIC Staphylococcus aureus (GC 4545) [3, 16]: >64 µg/mL | MIC Staphylococcus aureus-SMITH (GC 4543) [3]: >64 µg/mL | MIC Staphylococcus haemolyticus (GC 4546) [3]: >64 µg/mL | MIC Staphylococcus aureus (ATCC 29213) ([3]; broth dilution, strain ATCC 29213): >64 µg/mL | MIC Staphylococcus aureus (GC 1131) ([3]; broth dilution, strain GC 1131): >64 µg/mL | MIC Staphylococcus aureus (GC 4541) ([3]; broth dilution, strain GC 4541): >64 µg/mL | MIC Staphylococcus aureus (GC 4542) ([3]; broth dilution, strain GC 4542): >64 µg/mL | MIC Staphylococcus aureus (GC 4544) ([3]; broth dilution, strain GC 4544): >64 µg/mL | MIC Staphylococcus aureus (GC 4545) ([3]; broth dilution, strain GC 4545): >64 µg/mL | MIC Streptococcus agalactiae (GC 4564) [4, 17]: >64 µg/mL | MIC Streptococcus pneumoniae (GC 4565) ([4]; Streptococcus pneumoniae (GC 4565)): >64 µg/mL | MIC Streptococcus pyogenes (ID-3187) [4, 18]: 64 µg/mL | MIC Streptococcus agalactiae (GC 4564) ([4]; broth dilution, strain GC 4564): >64 µg/mL | MIC Streptococcus pneumoniae (GC 4565) ([4]; broth dilution, strain GC 4565): >64 µg/mL | MIC Streptococcus pyogenes (ID-3187) ([4]; broth dilution, strain ID-3187): 64 µg/mL | MIC Escherichia coli (ATCC 25922) [5]: >64 µg/mL

Source: patent US8247211B2, “Glycopeptide antibiotics” (American Cyanamid Company, priority 2001, dated 2012)
